Results from US11192907B2, “Aminopeptidase A inhibitors and pharmaceutical compositions comprising the same” (QUANTUM GENOMICS, priority 2018, dated 2021).

Biological target: T1, recombinant mouse APA (Mus musculus, UniProt P16406)
T1 sequence (P16406 1-945): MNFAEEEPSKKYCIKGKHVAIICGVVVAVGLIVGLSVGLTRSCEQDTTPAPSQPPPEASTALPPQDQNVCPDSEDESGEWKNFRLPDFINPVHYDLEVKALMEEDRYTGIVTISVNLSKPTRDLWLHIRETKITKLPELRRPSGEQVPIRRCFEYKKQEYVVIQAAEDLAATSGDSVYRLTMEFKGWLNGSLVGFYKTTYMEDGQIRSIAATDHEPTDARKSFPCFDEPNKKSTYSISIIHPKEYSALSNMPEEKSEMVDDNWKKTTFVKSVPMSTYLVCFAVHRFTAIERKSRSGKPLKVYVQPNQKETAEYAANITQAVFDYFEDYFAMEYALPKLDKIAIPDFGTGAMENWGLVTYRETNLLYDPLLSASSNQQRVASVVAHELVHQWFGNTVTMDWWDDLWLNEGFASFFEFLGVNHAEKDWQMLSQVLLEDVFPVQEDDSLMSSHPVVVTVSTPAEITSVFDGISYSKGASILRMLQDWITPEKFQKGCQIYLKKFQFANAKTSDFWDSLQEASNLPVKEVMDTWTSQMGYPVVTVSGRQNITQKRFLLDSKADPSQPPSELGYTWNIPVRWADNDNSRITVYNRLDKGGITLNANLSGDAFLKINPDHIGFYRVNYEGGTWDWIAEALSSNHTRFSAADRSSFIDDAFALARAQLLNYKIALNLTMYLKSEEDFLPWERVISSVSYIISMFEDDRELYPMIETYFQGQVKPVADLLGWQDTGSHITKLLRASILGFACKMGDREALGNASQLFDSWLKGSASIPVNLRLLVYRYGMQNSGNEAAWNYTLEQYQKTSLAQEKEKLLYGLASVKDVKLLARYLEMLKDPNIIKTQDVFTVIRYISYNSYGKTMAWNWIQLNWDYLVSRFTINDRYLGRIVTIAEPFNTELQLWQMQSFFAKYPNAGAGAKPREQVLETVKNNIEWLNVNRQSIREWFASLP
Experiment: Measurement of APA activity in vitro (GluβNa hydrolysis, microplate)
Assay type: biochemical
Conditions: 200 μM Glu-βNa, pH 7.4, 37° C., read-out: In vitro inhibition of aminopeptidase A, IC50 classification
Text: In vitro, in the presence of calcium ions, APA hydrolyses a synthetic substrate α-L-glutamyl-β-naphthylamide (GluβNa) to glutamate and β-naphthylamine (βNa). A diazotation reaction in acidic medium makes it possible to reveal the β-naphthylamine by formation of a violet-coloured complex: spectrophotometric measurement then makes it possible to know the amount of complex formed and, by reference to a standard curve produced with increasing concentrations of β-naphthylamine, to deduce the enzymatic activity of the sample.
The reaction takes place at pH 7.4 in 50 mM tris-HCl buffer, in the presence of calcium (4 mM CaCl2)); recombinant mouse APA is incubated at 37° C. in the presence of the substrate (200 μM Glu-βNa) and in the presence or absence of various concentrations of the inhibitor to be tested, in a final volume of 100 μL. The reaction is stopped by adding 10 μL of 3N HCl. A standard curve of β-naphthylamine was prepared in parallel by diazotizing increasing concentrations (up to 0.2 mM) of 2-naphthylamine in 0.1 N HCl.
The following are added to each well: 25 μL of sodium nitrite (NaNO2) (mix, wait 5 minutes at room temperature), 50 μL of ammonium sulfamate (mix, wait 5 minutes at room temperature), then add 25 μL of N-(1-naphthyl) ethylenediamine dihydrochloride (mix, wait for stabilization of the violet colour for approximately 30 minutes at 37° C.).
The absorbance is then measured at 540 nm.

SMILES	IC50 [nM]
Cc1ccccc1CP(=O)(O)C(N)CCC(=O)O (stereo not shown) [Example 2, 4-amino-4-{hydroxy[(2-methylphenyl)methyl]phosphoryl}butanoic acid]	30 to 300
Cc1cccc(CP(=O)(O)C(N)CCC(=O)O)c1 (stereo not shown) [Example 3, 4-amino-4-{hydroxy[(3-methylphenyl)methyl]phosphoryl}butanoic acid]	30 to 300
NC(CCC(=O)O)P(=O)(O)Cc1cc(C(F)(F)F)cc(C(F)(F)F)c1 (stereo not shown) [Example 5, 4-amino-4-({[3,5-bis(trifluoromethyl)phenyl]methyl}(hydroxy)phosphoryl) butanoic acid]	300 to 10000
COc1cccc(CP(=O)(O)C(N)CCC(=O)O)c1 (stereo not shown) [Example 11, 4-amino-4-{hydroxy[(3-methoxyphenyl)methyl]phosphoryl}butanoic acid]	< 30
NC(CCC(=O)O)P(=O)(O)Cc1cccc(Oc2ccccc2)c1 (stereo not shown) [Example 17, 4-amino-4-{hydroxy[(3-phenoxyphenyl)methyl]phosphoryl}butanoic acid]	30 to 300
NC(CCC(=O)O)P(=O)(O)Cc1cc(-c2ccccc2)on1 (stereo not shown) [Example 21, 4-amino-4-{hydroxy[(5-phenyl-1,2-oxazol-3-yl)methyl]phosphoryl}butanoic acid]	30 to 300
Cc1ccccc1CCP(=O)(O)C(N)CCC(=O)O (stereo not shown) [Example 23, 4-amino-4-{hydroxy[2-(2-methylphenyl)ethyl]phosphoryl}butanoic acid]	< 30
Cc1cccc(CCP(=O)(O)C(N)CCC(=O)O)c1 (stereo not shown) [Example 24, 4-amino-4-{hydroxy[2-(3-methylphenyl)ethyl]phosphoryl}butanoic acid]	< 30
Cc1ccc(CCP(=O)(O)C(N)CCC(=O)O)cc1 (stereo not shown) [Example 25, 4-amino-4-{hydroxy[2-(4-methylphenyl)ethyl]phosphoryl}butanoic acid]	< 30
NC(CCC(=O)O)P(=O)(O)CCc1cccc(C(F)(F)F)c1 (stereo not shown) [Example 26, 4-amino-4-[hydroxy({2-[3-(trifluoromethyl)phenyl]ethyl})phosphoryl]butanoic acid]	30 to 300
CC(C)(CP(=O)(O)C(N)CCC(=O)O)c1ccccc1 (stereo not shown) [Example 27, 4-amino-4-[hydroxy(2-methyl-2-phenylpropyl)phosphoryl]butanoic acid]	300 to 10000
NC(CCC(=O)O)P(=O)(O)CCc1ccc2ccccc2c1 (stereo not shown) [Example 30, 4-amino-4-{hydroxy[2-(naphthalen-2-yl)ethyl]phosphoryl}butanoic acid]	< 30
COc1ccccc1CCP(=O)(O)C(N)CCC(=O)O (stereo not shown) [Example 32, 4-amino-4-{hydroxy[2-(2-methoxyphenyl)ethyl]phosphoryl}butanoic acid]	< 30
COc1cccc(CCP(=O)(O)C(N)CCC(=O)O)c1 (stereo not shown) [Example 33, 4-amino-4-{hydroxy[2-(3-methoxyphenyl)ethyl]phosphoryl} butanoic acid]	< 30
NC(CCC(=O)O)P(=O)(O)CCc1ccccc1Oc1ccccc1 (stereo not shown) [Example 35, 4-amino-4-{hydroxy[2-(2-phenoxyphenyl)ethyl]phosphoryl}butanoic acid]	< 30
NC(CCC(=O)O)P(=O)(O)CCc1ccccc1OC1CCCC1 (stereo not shown) [Example 36, 4-amino-4-({2-[2-(cyclopentyloxy)phenyl]ethyl}(hydroxy)phosphoryl) butanoic acid]	< 30
NC(CCC(=O)O)P(=O)(O)CCCc1ccccc1 (stereo not shown) [Example 37, 4-amino-4-[hydroxy(3-phenylpropyl)phosphoryl]butanoic acid]	30 to 300

Continued, values first:

IC50 [nM]	SMILES
30 to 300	NC(CCC(=O)O)P(=O)(O)Cc1ccccc1 (stereo not shown) [Example 1, 4-amino-4-[benzyl(hydroxy)phosphoryl]butanoic acid]
30 to 300	Cc1ccc(CP(=O)(O)C(N)CCC(=O)O)cc1 (stereo not shown) [Example 4, 4-amino-4-{hydroxy[(4-methylphenyl)methyl]phosphoryl}butanoic acid]
300 to 10000	NC(CCC(=O)O)P(=O)(O)Cc1ccccc1-c1ccccc1 (stereo not shown) [Example 6, 4-amino-4-[({[1,1′-biphenyl]-2-yl}methyl)(hydroxy)phosphoryl]butanoic acid]
30 to 300	NC(CCC(=O)O)P(=O)(O)Cc1cccc(OC(F)(F)F)c1 (stereo not shown) [Example 7, 4-amino-4-[hydroxy({[3-(trifluoromethoxy)phenyl]methyl})phosphoryl]butanoic acid]
30 to 300	NC(CCC(=O)O)P(=O)(O)Cc1ccc(OC(F)(F)F)cc1 (stereo not shown) [Example 8, 4-amino-4-[hydroxy({[4-(trifluoromethoxy)phenyl]methyl})phosphoryl]butanoic acid]
300 to 10000	CS(=O)(=O)c1ccc(CP(=O)(O)C(N)CCC(=O)O)cc1 (stereo not shown) [Example 9, 4-amino-4-{hydroxy[(4-methanesulfonylphenyl)methyl]phosphoryl}butanoic acid]
< 30	COc1ccccc1CP(=O)(O)C(N)CCC(=O)O (stereo not shown) [Example 10, 4-amino-4-{hydroxy[(2-methoxyphenyl)methyl]phosphoryl}butanoic acid]
30 to 300	COc1ccc(CP(=O)(O)C(N)CCC(=O)O)cc1 (stereo not shown) [Example 12, 4-amino-4-{hydroxy[(4-methoxyphenyl)methyl]phosphoryl}butanoic acid]
30 to 300	N#Cc1cccc(CP(=O)(O)C(N)CCC(=O)O)c1 (stereo not shown) [Example 13, 4-amino-4-{[(3-cyanophenyl)methyl](hydroxy)phosphoryl}butanoic acid]
30 to 300	N#Cc1ccc(CP(=O)(O)C(N)CCC(=O)O)cc1 (stereo not shown) [Example 14, 4-amino-4-{[(4-cyanophenyl)methyl](hydroxy)phosphoryl}butanoic acid]
< 30	NC(CCC(=O)O)P(=O)(O)Cc1cccc2ccccc12 (stereo not shown) [Example 15, 4-amino-4-{hydroxy[(naphthalen-1-yl)methyl]phosphoryl}butanoic acid]
30 to 300	NC(CCC(=O)O)P(=O)(O)Cc1ccccc1Oc1ccccc1 (stereo not shown) [Example 16, 4-amino-4-{hydroxy[(2-phenoxyphenyl)methyl]phosphoryl}butanoic acid]
30 to 300	NC(CCC(=O)O)P(=O)(O)Cc1ccc(Oc2ccccc2)cc1 (stereo not shown) [Example 18, 4-amino-4-{hydroxy[(4-phenoxyphenyl)methyl]phosphoryl}butanoic acid]
30 to 300	NC(CCC(=O)O)P(=O)(O)Cc1cccc(-c2ccccc2)c1 (stereo not shown) [Example 19, 4-amino-4-[({[1,1′-biphenyl]-3-yl}methyl)(hydroxy)phosphoryl]butanoic acid]
300 to 10000	NC(CCC(=O)O)P(=O)(O)Cc1cc(-c2ccccc2)no1 (stereo not shown) [Example 20, 4-amino-4-{hydroxy[(3-phenyl-1,2-oxazol-5-yl)methyl]phosphoryl}butanoic acid]
< 30	NC(CCC(=O)O)P(=O)(O)CCc1ccccc1Cl (stereo not shown) [Example 28, 4-amino-4-{[2-(2-chlorophenyl)ethyl](hydroxy)phosphoryl}butanoic acid]
30 to 300	NC(CCC(=O)O)P(=O)(O)CCc1cccc(Cl)c1 (stereo not shown) [Example 29, 4-amino-4-{[2-(3-chlorophenyl)ethyl](hydroxy)phosphoryl}butanoic acid]
< 30	NC(CCC(=O)O)P(=O)(O)CCc1cccc2ccccc12 (stereo not shown) [Example 31, 4-amino-4-{hydroxy[2-(naphthalen-1-yl)ethyl]phosphoryl}butanoic acid]
< 30	COc1ccc(CCP(=O)(O)C(N)CCC(=O)O)cc1 (stereo not shown) [Example 34, 4-amino-4-{hydroxy[2-(4-methoxyphenyl)ethyl]phosphoryl}butanoic acid]
< 30	NC(CCC(=O)O)P(=O)(O)CCc1ccccc1OC(F)(F)F (stereo not shown) [Example 38, 4-amino-4-[hydroxy({2-[2-(trifluoromethoxy)phenyl]ethyl})phosphoryl]butanoic acid]
